Laboratory results reported in patent US20240150377A1, “MODULATORS OF CYSTIC FIBROSIS TRANSMEMBRANE CONDUCTANCE REGULATOR” (VERTEX PHARMACEUTICALS INCORPORATED, priority 2020, published 2024).
Each block holds one compound with its values, some of them ahead of it.

Molecular target: T1, CFTR (Homo sapiens, UniProt P13569, DEL508-508)
T1 construct: endogenous in cells; host or cells: primary human bronchial epithelial cells from CF subjects (F508del/MF-HBE), differentiated at air-liquid interface
T1 sequence (P13569 with tags, fused parts or gaps DEL508-508): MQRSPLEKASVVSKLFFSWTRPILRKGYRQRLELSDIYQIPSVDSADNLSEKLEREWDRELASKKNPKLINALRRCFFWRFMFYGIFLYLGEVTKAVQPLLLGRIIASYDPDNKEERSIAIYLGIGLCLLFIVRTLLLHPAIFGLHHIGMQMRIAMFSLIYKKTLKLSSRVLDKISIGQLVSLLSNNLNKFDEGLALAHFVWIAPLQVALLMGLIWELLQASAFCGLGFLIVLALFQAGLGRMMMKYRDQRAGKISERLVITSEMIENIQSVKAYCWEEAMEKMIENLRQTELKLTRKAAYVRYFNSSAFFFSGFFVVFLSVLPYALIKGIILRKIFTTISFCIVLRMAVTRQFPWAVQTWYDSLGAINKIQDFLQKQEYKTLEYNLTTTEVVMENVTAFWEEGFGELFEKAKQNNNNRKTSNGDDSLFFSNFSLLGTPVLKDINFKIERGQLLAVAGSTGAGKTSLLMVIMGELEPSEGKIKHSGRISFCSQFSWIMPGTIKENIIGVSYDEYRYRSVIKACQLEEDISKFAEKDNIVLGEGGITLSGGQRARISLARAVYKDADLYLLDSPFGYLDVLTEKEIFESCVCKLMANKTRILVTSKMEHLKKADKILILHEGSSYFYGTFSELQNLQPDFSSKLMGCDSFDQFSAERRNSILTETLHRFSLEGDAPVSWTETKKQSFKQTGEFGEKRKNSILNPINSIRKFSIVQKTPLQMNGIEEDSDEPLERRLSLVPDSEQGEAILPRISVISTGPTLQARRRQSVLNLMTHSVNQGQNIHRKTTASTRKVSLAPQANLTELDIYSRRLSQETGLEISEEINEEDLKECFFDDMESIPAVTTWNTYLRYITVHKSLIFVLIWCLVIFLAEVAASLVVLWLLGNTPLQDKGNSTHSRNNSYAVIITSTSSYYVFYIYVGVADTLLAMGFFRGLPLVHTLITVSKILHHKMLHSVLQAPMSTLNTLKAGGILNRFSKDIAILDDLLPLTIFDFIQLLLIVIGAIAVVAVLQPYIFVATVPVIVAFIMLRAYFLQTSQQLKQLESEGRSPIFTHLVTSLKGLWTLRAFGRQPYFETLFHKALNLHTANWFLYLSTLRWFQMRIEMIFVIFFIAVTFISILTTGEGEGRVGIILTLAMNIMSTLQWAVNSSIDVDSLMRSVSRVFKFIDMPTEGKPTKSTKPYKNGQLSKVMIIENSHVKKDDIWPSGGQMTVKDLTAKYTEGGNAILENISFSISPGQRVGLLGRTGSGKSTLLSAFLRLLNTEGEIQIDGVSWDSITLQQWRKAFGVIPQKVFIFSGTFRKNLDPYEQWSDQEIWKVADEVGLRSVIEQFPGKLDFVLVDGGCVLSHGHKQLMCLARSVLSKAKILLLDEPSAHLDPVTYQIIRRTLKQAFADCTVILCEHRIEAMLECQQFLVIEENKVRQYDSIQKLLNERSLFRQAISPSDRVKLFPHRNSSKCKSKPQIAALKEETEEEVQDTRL
Assay: HBE2 assay: Ussing chamber assay of CFTR-mediated short-circuit currents
Type: cell-based
Details: F508del/MF-HBE cells, with 44 nM potentiator, 18-24 hours, 20% human serum
Summary of the method: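 Corrector activity read as CFTR-dependent ISC (μA/cm^2): peak forskolin current minus post-inhibitor steady state. Measured at 37 °C, voltage clamp at 0 mV, on F508del/MF-HBE epithelia grown >14 days air-liquid interface in Ussing chambers.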

SMILES: Cc1cccc(C)c1-c1cc2nc(n1)NS(=O)(=O)c1cccc(c1)C(=O)N(Cc1cncc(N3CCCC[C@@H]3C)n1)[C@H](C1CC(C)(C)C1)CO2 (stereo in doubt) [Compound 1897]
HBE2 Activity at 3 μM (%) (3 μM corrector): + (+ is <300))

SMILES: Cc1cccc(C)c1-c1cc2nc(n1)NS(=O)(=O)c1cccc(c1)C(=O)N(Cc1cncc(N3CCC4CCC43)n1)[C@H](COC1CC1)CO2 (stereo in doubt) [Compound 1909]
HBE2 Activity at 3 μM (%) (3 μM corrector): +++ (+++ is >60+)

SMILES: Cc1cccc(C)c1-c1cc2nc(n1)NS(=O)(=O)c1cccc(c1)C(=O)N(Cc1cncc(N3CCC[C@H]3C)n1)[C@H](C[C@H]1CCCOC1)CO2 (stereo in doubt) [Compound 1940]
HBE2 Activity at 3 μM (%) (3 μM corrector): +++ (+++ is >60+)

SMILES: Cc1cccc(C)c1-c1cc2nc(n1)NS(=O)(=O)c1cccc(c1)C(=O)N(Cc1cncc(N3CCCC[C@H]3C)n1)[C@H](C[C@H]1CCCOC1)CO2 (stereo in doubt) [Compound 1942]
HBE2 Activity at 3 μM (%) (3 μM corrector): +++ (+++ is >60+)

SMILES: Cc1cccc(C)c1-c1cc2nc(n1)NS(=O)(=O)c1cccc(c1)C(=O)N(Cc1cncc(N3CCCO[C@H]4CC[C@H]43)n1)[C@H](CC(C)(C)C)CO2 (stereo in doubt) [Compound 1952]
HBE2 Activity at 3 μM (%) (3 μM corrector): +++ (+++ is >60+)

SMILES: Cc1cccc(C)c1-c1cc2nc(n1)NS(=O)(=O)c1cccc(c1)C(=O)N(Cc1ncc(OC3CCCC3)c[n+]1[O-])[C@H](CC(C)C)CO2 [Compound 1305, (11R)-12-[[5-(Cyclopentoxy)-1-oxido-pyrimidin-1-ium-2-yl]methyl]-6-(2,6-dimethylphenyl)-11-isobutyl-2,2-dioxo-9-oxa-2λ^6-thia-3,5,12,19-tetrazatricyclo[12.3.1.14,8]nonadeca-1(18),4(19),5,7,14,16-hexaen-13-one]
HBE2 Activity at 3 μM (%) (3 μM): +++ (+++ is >60+)

SMILES: Cc1cccc(C)c1-c1cc2nc(n1)NS(=O)(=O)c1cccc(c1)C(=O)N(Cc1cncc(N(C)C3CCC3)n1)[C@H](CC(C)(C)C)CO2 [Compound 1310, (11R)-12-[[6-[Cyclobutyl(methyl)amino]pyrazin-2-yl]methyl]-6-(2,6-dimethylphenyl)-11-(2,2-dimethylpropyl)-2,2-dioxo-9-oxa-2λ^6-thia-3,5,12,19-tetrazatricyclo[12.3.1.14,8]nonadeca-1(18),4(19),5,7,14,16-hexaen-13-one]
HBE2 Activity at 3 μM (%) (3 μM): +++ (+++ is >60+) | EC50: < 1000 nM | Emax (read-out: HBE2 Max activity (%)): > 60%

Next, values leading:

HBE2 Activity at 3 μM (%) (3 μM corrector): +++ (+++ is >60+)
SMILES: Cc1cccc(C)c1-c1cc2nc(n1)NS(=O)(=O)c1cccc(c1)C(=O)N(Cc1cnc3cc(C(C)C)n(C)c3n1)[C@H](C[C@H]1CCCOC1)CO2 (stereo in doubt) [Compound 1932]

HBE2 Activity at 3 μM (%) (3 μM corrector): +++ (+++ is >60+)
SMILES: Cc1cccc(C)c1-c1cc2nc(n1)NS(=O)(=O)c1cccc(c1)C(=O)N(Cc1cncc(N(C)C3CCC3)n1)[C@H](C[C@H]1CCCOC1)CO2 (stereo in doubt) [Compound 1938]

HBE2 Activity at 3 μM (%) (3 μM corrector): +++ (+++ is >60+)
SMILES: Cc1cccc(C)c1-c1cc2nc(n1)NS(=O)(=O)c1cccc(c1)C(=O)N(Cc1cncc(N3CCCO[C@H]4CC[C@H]43)n1)[C@H](CC(C)(C)C)CO2 (stereo in doubt) [Compound 1951]

HBE2 Activity at 3 μM (%) (3 μM): ++ (++ is 30-60%)
SMILES: Cc1cccc(C)c1-c1cc2nc(n1)NS(=O)(=O)c1cccc(c1)CN(Cc1ncc(OC(C)C)cn1)[C@H](CC(C)(C)C)CO2 [Compound 1298]

HBE2 Activity at 3 μM (%) (3 μM): +++ (+++ is >60+)
SMILES: CCc1ccnc(CN2C(=O)c3cccc(c3)S(=O)(=O)Nc3nc(cc(-c4c(C)cccc4C)n3)OC[C@H]2CC(C)(C)C)n1 [Compound 1302, (11R)-6-(2,6-Dimethylphenyl)-11-(2,2-dimethylpropyl)-12-[(4-ethylpyrimidin-2-yl)methyl]-2,2-dioxo-9-oxa-2λ^6-thia-3,5,12,19-tetrazatricyclo[12.3.1.14,8]nonadeca-1(18),4,6,8(19),14,16-hexaen-13-one]
